Laboratory results as given in patent US20230024302A1, “2,3,5-TRISUBSTITUTED PYRAZOLO[1,5-A]PYRIMIDINE COMPOUNDS” (Arcus Biosciences, Inc., priority 2019, published 2023).
Read-outs that look alike come from different tables or passages of the source.

Tests used:
PI3Kγ (p120γ) = target: T1, PI3Kγ (p120γ) (Homo sapiens, UniProt P48736); assay: Inhibition of PI3K kinase activity (ADP Glo), PI3Kγ; conditions: read-out: biochemical potency (PI3Kγ IC50)
T1 construct: purchased Promega V1761
Method in brief: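 IC50 values come from a 4-parameter nonlinear fit of ADP-Glo luminescence, which measures ADP produced as PIP2 is phosphorylated to PIP3. The p120γ enzyme (2× stock 8 nM) sat with compound 1 h at rt before substrate (2× stocks: 50 μM ATP, 0.1 mg/ml PIP2) was added. Phosphorylation then proceeded 60 min at rt.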

PI3Kγ = target: T2, PI3Kγ (Homo sapiens, UniProt P48736); assay: PI3Kγ cellular assay in THP-1 cells (AKT pS473 AlphaLISA); format: cell-based
T2 construct: host or cells: THP-1
T2 sequence (P48736 whole entry): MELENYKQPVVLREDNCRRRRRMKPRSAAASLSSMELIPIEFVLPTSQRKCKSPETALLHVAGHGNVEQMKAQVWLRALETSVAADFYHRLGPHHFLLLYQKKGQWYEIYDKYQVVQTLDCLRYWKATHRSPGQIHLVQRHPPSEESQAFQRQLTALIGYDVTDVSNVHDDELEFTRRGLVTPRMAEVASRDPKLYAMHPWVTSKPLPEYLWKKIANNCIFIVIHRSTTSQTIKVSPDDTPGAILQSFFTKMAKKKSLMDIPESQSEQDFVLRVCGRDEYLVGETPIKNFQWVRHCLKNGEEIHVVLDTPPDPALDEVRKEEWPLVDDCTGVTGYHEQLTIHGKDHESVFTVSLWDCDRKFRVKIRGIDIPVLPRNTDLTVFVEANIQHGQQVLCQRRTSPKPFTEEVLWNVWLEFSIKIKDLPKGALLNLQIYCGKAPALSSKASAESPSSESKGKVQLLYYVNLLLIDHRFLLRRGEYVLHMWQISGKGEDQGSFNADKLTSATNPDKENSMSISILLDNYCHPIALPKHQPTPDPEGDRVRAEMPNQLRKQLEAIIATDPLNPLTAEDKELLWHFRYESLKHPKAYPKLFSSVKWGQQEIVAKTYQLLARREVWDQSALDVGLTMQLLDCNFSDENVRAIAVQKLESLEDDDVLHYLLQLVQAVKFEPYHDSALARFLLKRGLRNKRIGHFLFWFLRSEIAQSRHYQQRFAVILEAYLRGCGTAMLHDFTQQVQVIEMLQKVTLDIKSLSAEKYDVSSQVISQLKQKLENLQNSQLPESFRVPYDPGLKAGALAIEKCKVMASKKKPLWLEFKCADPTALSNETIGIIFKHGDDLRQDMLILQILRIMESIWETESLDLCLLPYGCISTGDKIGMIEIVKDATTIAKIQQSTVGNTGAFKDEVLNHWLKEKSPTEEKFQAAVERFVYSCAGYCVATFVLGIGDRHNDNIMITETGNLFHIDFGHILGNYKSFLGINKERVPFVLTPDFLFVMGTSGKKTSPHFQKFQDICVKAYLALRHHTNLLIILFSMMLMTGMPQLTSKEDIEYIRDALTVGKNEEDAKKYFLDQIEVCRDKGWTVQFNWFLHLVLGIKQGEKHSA
Method in brief: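 Endogenous AKT S473 phosphorylation, detected by AlphaLISA in lysates, serves as the PI3Kγ activity read-out in stimulated, serum-starved THP-1 cells (1.8×10^5/well).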

[1] = AKT pS473, read-out: cellular potency (PI3Kγ IC50)
[2] = Table 6, rhMCP-1 stimulated AKT pS473, read-out: cellular potency (PI3Kγ IC50)

T1 sequence (P48736 whole entry): as above

| Structure (SMILES) | IC50 (PI3Kγ (p120γ)) | IC50 (PI3Kγ; [1]) | IC50 (PI3Kγ (p120γ); Table 6, p120γ) | IC50 (PI3Kγ; [2]) |
| --- | --- | --- | --- | --- |
| C[C@@H](C1CC1)N1Cc2cc(-c3ccn4nc(N)c(C(=O)Nc5ccccc5F)c4n3)cc(NS(C)(=O)=O)c2C1=O [Example 397] | < 100 nM | 100 to 1000 nM |  |  |
| COc1ccccc1NC(=O)c1c(N)nn2ccc(-c3cc4c(c(NS(C)(=O)=O)c3)C(=O)N([C@@H](C)C3CC3)C4)nc12 [Example 398] | < 100 nM | > 1000 nM |  |  |
| CC(C)[C@H](CO)NC(=O)c1c(N)nn2ccc(-c3cc4c(c(NS(C)(=O)=O)c3)C(=O)N([C@@H](C)C(F)(F)F)C4)nc12 [Example 399] | < 100 nM | 100 to 1000 nM |  |  |
| CC(C)[C@H](CO)NC(=O)c1c(N)nn2ccc(-c3cc4c(c(NS(C)(=O)=O)c3)C(=O)N([C@@H](C3CC3)C(F)(F)F)C4)nc12 [Example 400] | < 100 nM | 100 to 1000 nM |  |  |
| C[C@H](N1Cc2cc(-c3ccn4nc(N)c(C(=O)Nc5cccnc5)c4n3)cc(NS(C)(=O)=O)c2C1=O)C(F)(F)F [Example 401] | < 100 nM | 100 to 1000 nM |  |  |
| CC(C)[C@H](N1Cc2cc(-c3ccn4nc(N)c(C(=O)NC5CC5)c4n3)cc(NS(C)(=O)=O)c2C1=O)C(F)(F)F [Example 402] | < 100 nM | 100 to 1000 nM |  |  |
| C[C@H](N1Cc2cc(-c3ccn4nc(N)c(C(=O)Nc5ccccc5)c4n3)cc(NS(C)(=O)=O)c2C1=O)C(F)(F)F [Example 403] | < 100 nM | 100 to 1000 nM |  |  |
| C[C@H](CO)NC(=O)c1c(N)nn2ccc(-c3cc4c(c(N(C)S(C)(=O)=O)c3)C(=O)N([C@@H](C)C3CC3)C4)nc12 [Example 408] |  |  | < 100 nM | 100 to 1000 nM |
| C[C@@H](C1CC1)N1Cc2cc(-c3ccn4nc(N)c(C(=O)NC5CC5)c4n3)cc(NS(=O)(=O)N3CCOCC3)c2C1=O [Example 409] |  |  | < 100 nM | 100 to 1000 nM |
| C[C@@H](C1CC1)N1Cc2cc(-c3ccn4nc(N)c(C(=O)NC5CC5)c4n3)cc(NS(=O)(=O)N(C)C)c2C1=O [Example 410] |  |  | < 100 nM | < 100 nM |
| C[C@@H](C1CC1)N1Cc2cc(-c3ccn4nc(N)c(C(=O)N[C@H]5CC[C@H](C(=O)O)CC5)c4n3)cc(OC(F)(F)F)c2C1=O [Example 411] |  |  | < 100 nM | 100 to 1000 nM |
| C[C@@H](C1CC1)N1Cc2cc(-c3ccn4nc(N)c(C(=O)N[C@@H]5CCC(=O)NC5)c4n3)cc(OC(F)(F)F)c2C1=O [Example 412] |  |  | < 100 nM | 100 to 1000 nM |
| C[C@@H](C1CC1)N1Cc2cc(-c3ccn4nc(N)c(C(=O)N[C@H]5CCC(=O)NC5)c4n3)cc(OC(F)(F)F)c2C1=O [Example 413] |  |  | < 100 nM | 100 to 1000 nM |
| C[C@@H](C1CC1)N1Cc2cc(-c3ccn4nc(N)c(C(=O)NCc5cccnc5)c4n3)cc(OC(F)(F)F)c2C1=O [Example 414] |  |  | < 100 nM | 100 to 1000 nM |
| C[C@H](N1Cc2cc(-c3ccn4nc(N)c(C(=O)NC5CC5)c4n3)cc(OC(F)(F)F)c2C1=O)C(F)(F)F [Example 415] |  |  | < 100 nM | 100 to 1000 nM |
| Nc1nn2ccc(-c3cc4c(c(OC(F)(F)F)c3)C(=O)N([C@@H](CO)C3CC3)C4)nc2c1C(=O)NC1CC1 [Example 416] |  |  | < 100 nM | 100 to 1000 nM |
| C[C@@H](C1CC1)N1Cc2cc(-c3ccn4nc(N)c(C(=O)N[C@H]5CNC[C@H]5O)c4n3)cc(OC(F)(F)F)c2C1=O [Example 417] |  |  | < 100 nM | > 1000 nM |
| C[C@@H](C1CC1)N1Cc2cc(-c3ccn4nc(N)c(C(=O)N[C@@H]5CNC[C@H]5O)c4n3)cc(OC(F)(F)F)c2C1=O [Example 418] |  |  | < 100 nM | > 1000 nM |
| C[C@@H](C1CC1)N1Cc2cc(-c3ccn4nc(N)c(C(=O)Nc5ccc(C(C)(C)O)cc5)c4n3)cc(OC(F)(F)F)c2C1=O [Example 419] |  |  | < 100 nM | 100 to 1000 nM |
| C[C@@H](C1CC1)N1Cc2cc(-c3ccn4nc(N)c(C(=O)Nc5cccc(C(C)(C)O)c5)c4n3)cc(OC(F)(F)F)c2C1=O [Example 420] |  |  | < 100 nM | 100 to 1000 nM |
| C[C@@H](C1CC1)N1Cc2cc(-c3ccn4nc(N)c(C(=O)N[C@H]5CCCNC5)c4n3)cc(OC(F)(F)F)c2C1=O [Example 421] |  |  | < 100 nM | 100 to 1000 nM |
| C[C@@H](C1CC1)N1Cc2cc(-c3ccn4nc(N)c(C(=O)Nc5cnccc5N)c4n3)cc(OC(F)(F)F)c2C1=O [Example 422] |  |  | < 100 nM | 100 to 1000 nM |
| COc1ccc(NC(=O)c2c(N)nn3ccc(-c4cc5c(c(OC(F)(F)F)c4)C(=O)N([C@@H](C)C4CC4)C5)nc23)cn1 [Example 423] |  |  | < 100 nM | 100 to 1000 nM |
| C[C@@H](C1CC1)N1Cc2cc(-c3ccn4nc(N)c(C(=O)N[C@H]5CNC[C@@H]5O)c4n3)cc(OC(F)(F)F)c2C1=O [Example 424] |  |  | < 100 nM | > 1000 nM |
| C[C@@H](C1CC1)N1Cc2cc(-c3ccn4nc(N)c(C(=O)Nc5ccccc5C(C)(C)O)c4n3)cc(OC(F)(F)F)c2C1=O [Example 425] |  |  | < 100 nM | > 1000 nM |

Results, then the compound that gave them:

| IC50 (PI3Kγ (p120γ)) | IC50 (PI3Kγ; [1]) | IC50 (PI3Kγ (p120γ); Table 6, p120γ) | IC50 (PI3Kγ; [2]) | Structure (SMILES) |
| --- | --- | --- | --- | --- |
|  |  | < 100 nM | 100 to 1000 nM | C[C@@H](C1CC1)N1Cc2cc(-c3ccn4nc(N)c(C(=O)N[C@H]5CCC[C@@H](N)C5)c4n3)cc(OC(F)(F)F)c2C1=O [Example 426] |
|  |  | < 100 nM | > 1000 nM | C[C@@H](C1CC1)N1Cc2cc(-c3ccn4nc(N)c(C(=O)Nc5ccccc5)c4n3)cc(OC(F)(F)F)c2C1=O [Example 427] |
|  |  | < 100 nM | > 1000 nM | C[C@@H](C1CC1)N1Cc2cc(-c3ccn4nc(N)c(C(=O)Nc5ccnc(C(F)(F)F)c5)c4n3)cc(OC(F)(F)F)c2C1=O [Example 428] |
|  |  | < 100 nM | < 100 nM | Cc1nn(C)cc1NC(=O)c1c(N)nn2ccc(-c3cc4c(c(OC(F)F)c3)C(=O)N([C@@H](C)C3CC3)C4)nc12 [Example 429] |
|  |  | < 100 nM | < 100 nM | C[C@@H](C1CC1)N1Cc2cc(-c3ccn4nc(N)c(C(=O)N[C@H]5C[C@](C)(O)C5)c4n3)cc(OC(F)F)c2C1=O [Example 430] |
|  |  | < 100 nM | 100 to 1000 nM | C[C@H](N1Cc2cc(-c3ccn4nc(N)c(C(=O)NC5CC5)c4n3)cc(N3CC[C@@H](O)C3)c2C1=O)C(F)(F)F [Example 431] |
|  |  | < 100 nM | 100 to 1000 nM | C[C@@H](C1CC1)N1Cc2cc(-c3ccn4nc(N)c(C(=O)N[C@H]5C[C@@](C)(O)C5)c4n3)cc(N3CC[C@@H](O)C3)c2C1=O [Example 432] |
|  |  | < 100 nM | 100 to 1000 nM | C[C@@H](C1CC1)N1Cc2cc(-c3ccn4nc(N)c(C(=O)NC5CC5)c4n3)cc(N3CC(O)C3)c2C1=O [Example 433] |
|  |  | < 100 nM | 100 to 1000 nM | C[C@H](N1Cc2cc(-c3ccn4nc(N)c(C(=O)N[C@@H](CO)C5CC5)c4n3)cc(N3CC[C@@H](O)C3)c2C1=O)C(F)(F)F [Example 434] |
|  |  | < 100 nM | 100 to 1000 nM | C[C@H](CO)NC(=O)c1c(N)nn2ccc(-c3cc4c(c(N5CC(F)(F)C5)c3)C(=O)N([C@@H](C)C3CC3)C4)nc12 [Example 435] |
|  |  | < 100 nM | 100 to 1000 nM | C[C@@H](C1CC1)N1Cc2cc(-c3ccn4nc(N)c(C(=O)NC5CC5)c4n3)cc(N3CC(F)(F)C3)c2C1=O [Example 436] |
|  |  | < 100 nM | 100 to 1000 nM | C[C@@H](C1CC1)N1Cc2cc(-c3ccn4nc(N)c(C(=O)N[C@H]5CC[C@@](C)(O)CC5)c4n3)cc(N3CCN(C)CC3)c2C1=O [Example 437] |
|  |  | < 100 nM | 100 to 1000 nM | C[C@@H](C1CC1)N1Cc2cc(-c3ccn4nc(N)c(C(=O)Nc5cccnc5)c4n3)cc(N3CC[C@@H](O)C3)c2C1=O [Example 438] |
|  |  | < 100 nM | 100 to 1000 nM | C[C@H](CO)NC(=O)c1c(N)nn2ccc(-c3cc4c(c(OC5CC(F)(F)C5)c3)C(=O)N([C@@H](C)C3CC3)C4)nc12 [Example 439] |
|  |  | < 100 nM | 100 to 1000 nM | C[C@H](CO)NC(=O)c1c(N)nn2ccc(-c3cc4c(c(O[C@H](C)C(F)(F)F)c3)C(=O)N([C@@H](C)C3CC3)C4)nc12 [Example 440] |
|  |  | < 100 nM | > 1000 nM | C[C@@H](C1CC1)N1Cc2cc(-c3ccn4nc(N)c(C(=O)N[C@H]5CCNC5=O)c4n3)cc(O[C@@H]3CCOC3)c2C1=O [Example 441] |
|  |  | < 100 nM | 100 to 1000 nM | C[C@@H](C1CC1)N1Cc2cc(-c3ccn4nc(N)c(C(=O)NC5CC5)c4n3)cc(O[C@H](C)C(F)(F)F)c2C1=O [Example 442] |
|  |  | < 100 nM | > 1000 nM | C[C@@H](C1CC1)N1Cc2cc(-c3ccn4nc(N)c(C(=O)N[C@@H]5CNC(=O)C5)c4n3)cc(O[C@@H]3CCOC3)c2C1=O [Example 443] |
|  |  | < 100 nM | 100 to 1000 nM | C[C@@H](C1CC1)N1Cc2cc(-c3ccn4nc(N)c(C(=O)N[C@H]5C[C@](C)(O)C5)c4n3)cc(S(C)(=O)=O)c2C1=O [Example 444] |
|  |  | < 100 nM | 100 to 1000 nM | C[C@@H](C1CC1)N1Cc2cc(-c3ccn4nc(N)c(C(=O)N[C@H]5C[C@H](O)C5)c4n3)cc(S(C)(=O)=O)c2C1=O [Example 445] |
|  |  | < 100 nM | 100 to 1000 nM | CC(C)NS(=O)(=O)c1cc(-c2ccn3nc(N)c(C(=O)NC4CC4)c3n2)cc2c1C(=O)N([C@@H](C)C1CC1)C2 [Example 446] |
|  |  | < 100 nM | 100 to 1000 nM | C[C@@H](C1CC1)N1Cc2cc(-c3ccn4nc(N)c(C(=O)NC5CC5)c4n3)cc(S(C)(=N)=O)c2C1=O (some centres unmarked) [Example 447] |
|  |  | < 100 nM | 100 to 1000 nM | C[C@@H](C1CC1)N1Cc2cc(-c3ccn4nc(N)c(C(=O)N[C@H]5CC[C@@](C)(O)CC5)c4n3)cc(S(C)(=N)=O)c2C1=O (some centres unmarked) [Example 448] |
|  |  | < 100 nM | 100 to 1000 nM | CC[C@H](N1Cc2cc(-c3ccn4nc(N)c(C(=O)NC5CC5)c4n3)cc(Cl)c2C1=O)C(F)(F)F [Example 449] |
